Laboratory results: patent US8609858B2, “Spiro derivatives of parthenin as novel anticancer agents” (Council of Scientific & Industrial Research, priority 2008, dated 2013)

Tests used:
SW-620 = experiment: In vitro cytotoxicity screening (sulphodamine B dye), SW-620; format: cell-based; details: Homo sapiens
Description: (§1) Cells at sub confluent stage were harvested from the flask by treatment with trypsin (0.5% in PBS containing 0.02% EDTA) for determination of cytotoxicity. […] The cell suspensions of required cell density were prepared in complete growth medium with gentamycin (50 μg/ml) for determination of cytotoxicity. The cells (100 μl/well) were inoculated in 96 well tissue culture plates. The cells were allowed to grow for 24 hrs temperature of 37° C. and in a humidified atmosphere of 5% CO2 in air. Stock solution of (20 mM) of test material was prepared in DMSO. The stock solution was serially diluted with complete growth medium containing 50 μg/ml of gentamycin to obtain […] working test solutions of 1., 2, 5, 10, 50 and 100 μM.
(§2) The media were supplemented with FCS (10%), penicillin (100 Units/ml), streptomycin (100 μg/ml) and glutamine (2 mM) and cells were grown in CO2 incubator (Hera cell, Heraeus, USA) at 37° C. with 90% humidity and 5% CO2.

DU-145 = experiment: In vitro cytotoxicity screening (sulphodamine B dye), DU-145; format: cell-based; details: Homo sapiens
Description: as §1, §2

[1] = test system: acute lymphoblastic leukemia Cells (MOLT-4); experiment: DNA fragmentation by DNA gel electrophoresis; format: cell-based, human; details: 10, 50 & 100 μM, 24 hrs
Description: DNA fragmentation was determined by electrophoresis of extracted genomic DNA from acute lymphoblastic leukemia Cells (MOLT-4). Briefly, exponentially growing cells (3×10^6 cells/ml) in 6 well plates were treated with “Compound-17” (1, 10, 50 and 100 μM) for 24 hrs. Cells were harvested, washed with PBS, pellets were dissolved in lysis buffer (10 mM EDTA, 50 mM Tris Buffer, pH 8.0, 0.5% w/v SDS and proteinase K 0.5 mg/ml) and incubated at 50° C. for 1 hr. lysate was further incubated with RNase A (0.5 mg/ml) at 50° C. for 1 hr. Finally, the DNA obtained was heated rapidly to 70° C., supplemented with loading dye and immediately resolved on to 1.5% agarose gel at 50 V for 2-3 hrs (FIG. 2).

[2] = test system: Ehrlich Ascites Tumor (EAT); experiment: Anti tumor activity on solid Ehrlich Ascites Tumor (EAT) bearing mice; format: in vivo; details: for % Tumor growth inhibition / Tumor Weight (mg) Mean ± SE: nine days, day 13
Excerpt: Non-inbred swiss albino mice from an in-house colony were used in the present study. The breeding and experimental animals were housed in standard size polycarbonate cages providing internationally recommended space for each animal. Animals were fed balanced mice feed supplied by MIs Ashirwad Industries, Chandigarh (India) and autoclaved water was available ad libitum. Animals were cared as per the guide for the care and use of laboratory animals (1996), ILAR, Washington D.C. They were housed in controlled conditions of temperature (23±2° C.), humidity (50-60%) and 12:12 hrs of light: dark cycle. The study and the number of animals used were approved by the institutional animal ethics committee, IIIM, Jammu, India. The study was conducted as per the protocols of National Cancer Institute (NCl), USA (Geran et al., 1972).
Parthenin and its derivative Compound-17 were evaluated against solid Ehrlich Ascites Tumor (EAT) models at different doses. A standard procedure for experiment was as followed:
Animals of the same sex weighing 20±3 g were injected 1×10^7 cells collected from the peritoneal cavity of non-inbred swiss mice, bearing 8-10 days old tumor cells, into the right thigh, intramuscularly (on Day 1). On next day animals were randomized and divided into test groups (7 animals in each test group) and one tumor control group (10 animals). Test groups were treated with different doses of Parthenin (10 mg/kg, 25 mg/kg and 50 mg/kg) and its derivative Compound-17 (10 mg/kg, 25 mg/kg and 50 mg/kg, 100 mg/kg and 200 mg/kg) suspension in 1% gum acacia in, their respective group intraperitonealy for nine consecutive days. Another test group was administered 5-FU @ 22 mg/kg i.p and served as positive control. The tumor contra group was similarly administered normal saline (0.2 ml i.p). The percent tumor growth-inhibition was measured on day 13 with respect to their tumor weight (Geran et al., 1972): Shortest and longest diameters of the tumor mass were measured with the help of vernier caliper and tumor weight (mg) was calculated by using following formula Tumor weight (mg)=Length (mm)×(Width (mm)^2/2 The average tumor weight for each group was calculated and the percent tumor growth inhibition in treated groups was calculated as follows: % Tumor Growth Inhibition=100×(Average tumor weight of control group−Average tumor weight of test group)/Average tumor weight of control group Anti Tumor Activity of Parthenin and its Derivative Compound-17 on Ehrlich Ascites Carcinoma (EAC)

human cancer cell lines = experiment: In vitro cytotoxicity screening, human cancer cell lines in general; format: cell-based; details: all the cell lines used, read-out: growth inhibition of human cancer cell lines
Description: Cells at sub confluent stage were harvested from the flask by treatment with trypsin (0.5% in PBS containing 0.02% EDTA) for determination of cytotoxicity. Cells with viability of more than 98%, as determined by trypan blue, were used for assay. The cell suspensions of required cell density were prepared in complete growth medium with gentamycin (50 μg/ml) for determination of cytotoxicity. The cells (100 μl/well) were inoculated in 96 well tissue culture plates. The cells were allowed to grow for 24 hrs temperature of 37° C. and in a humidified atmosphere of 5% CO2 in air. Stock solution of (20 mM) of test material was prepared in DMSO. The stock solution was serially diluted with complete growth medium containing 50 μg/ml of gentamycin to obtain […] working test solutions of 1., 2, 5, 10, 50 and 100 μM. In vitro cytotoxicity (IC50 value) against human cancer cell lines was determined using sulphodamine B dye.^5,6 The results are summarized in table 4.
The human Cancer Cell lines were obtained either from National Center for Cell Science, Pune, India or National Cancer Institute, Frederick, U.S.A. The human cancer cell colon: SW-620, prostrate, PC-3, DU-145 and acute lymphoblastic leukemia (MOLT-4) were grown and maintained in RPMI-1640 medium, pH 7.4, HEP-2. […]

Compound: C[C@H]1CC[C@@H]2[C@@H](OC(=O)C23CC(c2c4ccccc4cc4ccccc24)=NO3)[C@]2(C)C(=O)C=C[C@@]12O (stereo partly drawn) [Compound -17]
- IC50 (SW-620; SW-620 colon cancer cell line): 4.3 µM
- inhibition at 5 µM (SW-620; at 5 μM, SW-620, read-out: cell growth inhibition): 72%
- IC50 (DU-145; DU-145 prostate cancer cell line): 4.6 µM
- inhibition at 5 µM (DU-145; at 5 μM, DU-145, read-out: cell growth inhibition): 85%
- DNA ladder (DNA fragmentation) [1]: DNA ladder was observed
- % Tumor growth inhibition ([2]; 10 mg/kg i.p.): 9.44%
- Tumor Weight (mg) Mean ± SE ([2]; 10 mg/kg i.p.): 1547.14 ± 36.63 mg
- % Tumor growth inhibition ([2]; 25 mg/kg i.p.): 15.38%
- Tumor Weight (mg) Mean ± SE ([2]; 25 mg/kg i.p.): 1445.71 ± 41.52 mg
- % Tumor growth inhibition ([2]; 50 mg/kg i.p.): 22.03%
- Tumor Weight (mg) Mean ± SE ([2]; 50 mg/kg i.p.): 1332.14 ± 32.59 mg
- % Tumor growth inhibition ([2]; 100 mg/kg i.p.): 35.11%
- Tumor Weight (mg) Mean ± SE ([2]; 100 mg/kg i.p.): 1108.57 ± 38.02 mg
- mortality of test animals ([2]; 200 mg/kg i.p., EAT bearing mice): All animals died by 3rd day
- inhibition at 5 µM (human cancer cell lines): ≥ 70%
